Where two headings read alike, the source gives them in different places.
What was measured:
Type in all cases: cell-based, human
[1] = system: HTT mRNA; test: Splicing RT-qPCR assay, HTT canonical (CJ) and alternative (AJ) junction mRNA; settings: Homo sapiens, A673 or K562 cells, 24 hours compound treatment; for IC50: 24 h, read-out: HTT CJ (IC50, decrease in canonical junction mRNA); for AC50: read-out: HTT AJ (AC50, increase in alternative junction mRNA)
Summary of the method: (§1)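 A673 or K562 cells were treated 24 h at 37 °C with an 11-point 3-fold compound dilution series (top 10 uM, DMSO ≤0.25%). Lysates went to one-step RT-qPCR measuring canonical (CJ) and alternative-exon (AJ) junction transcripts, normalized to GAPDH, GUSB or PPIA.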

[2] = system: MYB mRNA; test: Splicing RT-qPCR assay, MYB canonical (CJ) and alternative (AJ) junction mRNA; settings: Homo sapiens; for AC50: read-out: MYB AJ (AC50, increase in alternative junction mRNA)
Summary of the method: as §1

[3] = system: SMN2 mRNA; test: Splicing RT-qPCR gene panel, SMN2 canonical junction (CJ) mRNA; settings: Homo sapiens, Tables 4A/4B, read-out: SMN2 (IC50, decrease in CJ mRNA, gene panel)
Summary of the method: (§2)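 Cells (A673 in DMEM/10% FBS, K562 in IMDM/10% FBS) got compound for 24 h, top dose 10 uM, 11 points, 3-fold steps, DMSO ≤0.25%. Lysates went to RT-qPCR for the canonical exon-exon junction; ΔΔCt against housekeeper and DMSO gave RQ, then percentage response.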

[4] = system: Target C mRNA; test: Splicing RT-qPCR gene panel, Target C canonical junction (CJ) mRNA; settings: Homo sapiens, Tables 4A/4B, read-out: Target C (IC50, decrease in CJ mRNA, gene panel)
Summary of the method: as §2

[5] = system: HTT mRNA; test: Splicing RT-qPCR gene panel, HTT canonical junction (CJ) mRNA; settings: Homo sapiens, Tables 4A/4B, read-out: HTT (IC50, decrease in CJ mRNA, gene panel)
Summary of the method: as §2

[6] = 24 h, A673 or K562 cells, 24 hours compound treatment, RT-qPCR
[7] = 24 h, A673 or K562 cells, 24 hours compound treatment, RT-qPCR, read-out: MYB CJ (IC50, decrease in canonical junction mRNA)
[8] = Tables 4A/4B, canonical junction qPCR panel, read-out: MYB (IC50, decrease in CJ mRNA, gene panel)

| Structure (SMILES) | IC50 [1] [µM] | AC50 [1] [µM] | AC50 [2, 6] [µM] | IC50 [2, 7] [µM] | IC50 [2, 8] [µM] | IC50 [3] [µM] | IC50 [4] [µM] | IC50 [5] [µM] |
| --- | --- | --- | --- | --- | --- | --- | --- | --- |
| Cc1cn2cc(NC(=O)c3c(F)cc(N4CCC(N(C)C)C4)c4cn(C)nc34)cc(F)c2n1 (stereo in doubt) [Compound 463, 4-[(3R)-3-(dimethylamino)pyrrolidin-1-yl]-6-fluoro-N-{8-fluoro-2-methylimidazo[1,2-a]pyridin-6-yl}-2-methylindazole-7-carboxamide] | 0.1 to 1 | 0.1 to 1 | < 0.1 | < 0.1 | < 0.1 | < 0.1 | > 10 | 0.1 to 1 |
| Cc1cn2cc(NC(=O)c3c(F)cc(N4CCC(N(C)C)C4)c4cn(C)nc34)cc(F)c2n1 (stereo in doubt) [Compound 464, 4-[(3S)-3-(dimethylamino)pyrrolidin-1-yl]-6-fluoro-N-{8-fluoro-2-methylimidazo[1,2-a]pyridin-6-yl}-2-methylindazole-7-carboxamide] | 0.1 to 1 | 0.1 to 1 | < 0.1 | < 0.1 | < 0.1 | < 0.1 | 1 to 10 | 0.1 to 1 |
| Cc1cn2cc(NC(=O)c3ccc(C4CCNCC4)c4c3OCC4)cc(F)c2n1 [Compound 188] | > 10 | > 10 | 1 to 10 | 1 to 10 | 1 to 10 | 0.1 to 1 | 1 to 10 | > 10 |
| Cc1cn2cc(NC(=O)c3ccc(N(C)C4CC(C)(C)NC(C)(C)C4)c4cc(C)oc34)cc(F)c2n1 [Compound 201] | > 10 | > 10 | > 10 | > 10 | > 10 | 1 to 10 | > 10 | > 10 |
| Cc1cn2cc(NC(=O)c3ccc(N4CCC(N(C)C)C4)c4cc(C)oc34)cc(F)c2n1 (stereo not shown) [Compound 202] | > 10 | 1 to 10 | < 0.1 | 0.1 to 1 | 0.1 to 1 | < 0.1 | > 10 | > 10 |
| Cc1cn2cc(NC(=O)c3ccc(N4CCC(N5CCCC5)C4)c4cc(C)oc34)cc(F)c2n1 (stereo not shown) [Compound 204] | 1 to 10 | 1 to 10 | 0.1 to 1 | 0.1 to 1 | 0.1 to 1 | < 0.1 | 1 to 10 | 1 to 10 |
| Cc1cn2cc(NC(=O)c3ccc(N4CC5(CNC5)C4)c4cc(C)oc34)cc(F)c2n1 [Compound 205] | 0.1 to 1 | 1 to 10 | 0.1 to 1 | 0.1 to 1 | 0.1 to 1 | < 0.1 | 1 to 10 | 0.1 to 1 |
| Cc1cn2cc(NC(=O)c3ccc(N4CC5(CN(C)C5)C4)c4cc(C)oc34)cc(F)c2n1 [Compound 206] | 1 to 10 | 1 to 10 | 0.1 to 1 | 0.1 to 1 | 0.1 to 1 | < 0.1 | > 10 | 1 to 10 |
| Cc1cn2cc(NC(=O)c3ccc(C4CCN(C)CC4)c4cn(C)nc34)cc(F)c2n1 [Compound 209] | 0.1 to 1 | 0.1 to 1 | < 0.1 | < 0.1 | < 0.1 | 1 to 10 | 0.1 to 1 | 0.1 to 1 |
| CCN1CCC(c2ccc(C(=O)Nc3cc(F)c4nc(C)cn4c3)c3nn(C)cc23)CC1 [Compound 210] | 0.1 to 1 | 0.1 to 1 | < 0.1 | < 0.1 | < 0.1 | < 0.1 | 1 to 10 | 0.1 to 1 |
| Cc1cn2cc(NC(=O)c3ccc(C4CC(C)(C)NC(C)(C)C4)c4cn(C)nc34)cc(F)c2n1 [Compound 212] | 1 to 10 | > 10 | 1 to 10 | 0.1 to 1 | 0.1 to 1 | 0.1 to 1 | > 10 | 1 to 10 |
| Cc1cc2c(N3CCNCC3)ccc(C(=O)Nc3cc(F)c4nc(C)sc4c3)c2o1 [Compound 219] | > 10 | > 10 | 1 to 10 | 0.1 to 1 | 0.1 to 1 | 0.1 to 1 | > 10 | > 10 |
| Cc1cn2cc(NC(=O)c3ccc(N4CCN(C)C(C)C4)c4cn(C)nc34)cc(F)c2n1 (stereo not shown) [Compound 229] | 0.1 to 1 | 0.1 to 1 | < 0.1 | < 0.1 | < 0.1 | < 0.1 | 1 to 10 | 0.1 to 1 |
| Cn1cc2ccc(NC(=O)c3ccc(N4CCNCC4)c4cn(C)nc34)cc2n1 [Compound 230] | > 10 | > 10 | > 10 | > 10 | > 10 | > 10 | > 10 | > 10 |
| Cn1cc2c(F)cc(NC(=O)c3ccc(N4CCNCC4)c4cn(C)nc34)cc2n1 [Compound 231] | > 10 | > 10 | > 10 | > 10 | > 10 | > 10 | > 10 | > 10 |
| Cc1nc2c(F)cc(NC(=O)c3ccc(N4CCNCC4)c4cn(C)nc34)cc2s1 [Compound 235] | 1 to 10 | 1 to 10 | 0.1 to 1 | 0.1 to 1 | 0.1 to 1 | < 0.1 | > 10 | 1 to 10 |
| CC1=CC2=NC(C)=NC2C=C1NC(=O)c1ccc(N2CCNCC2)c2cn(C)nc12 (stereo not shown) [Compound 237] | 1 to 10 | 1 to 10 | < 0.1 | 0.1 to 1 | 0.1 to 1 | < 0.1 | > 10 | 1 to 10 |
| Cc1cn2cc(NC(=O)c3ccc(N4CCNCC4)c4cn(C)nc34)cc(C)c2n1 [Compound 238] | 1 to 10 | 1 to 10 | 0.1 to 1 | 0.1 to 1 | 0.1 to 1 | < 0.1 | > 10 | 1 to 10 |
| CCC1CN(c2ccc(C(=O)Nc3cc(F)c4nc(C)cn4c3)c3nn(C)cc23)CCN1 (stereo not shown) [Compound 239] | 0.1 to 1 | 0.1 to 1 | 0.1 to 1 | < 0.1 | < 0.1 | < 0.1 | 1 to 10 | 0.1 to 1 |
| CC1=NC2C=C(NC(=O)c3ccc(N4CCNC(C)(C)C4)c4cn(C)nc34)C=C(F)C2=N1 (stereo not shown) [Compound 240] | 0.1 to 1 | 0.1 to 1 | < 0.1 | < 0.1 | < 0.1 | < 0.1 | 1 to 10 | 0.1 to 1 |
